Results published in US20250003969A1, “METHODS TO IDENTIFY AND TREAT SUBJECTS HAVING CORTICOSTEROID-RESISTANT INFLAMMATORY DISEASES” (priority 2013, published 2025).
Entries after “also recorded” stand apart in the source; their conditions may differ.

What was measured:
[1] = Bronchodilator responsiveness (FEV1 reversal with albuterol); type: in vivo, human
Source text: (§1) Study subjects. Thirty-nine adult asthmatics were enrolled in this study. […] Patients completed asthma questionnaires (ACQ) to assess their asthma control. […] Twelve healthy nonatopic subjects underwent bronchoscopy as controls. Smokers were excluded from participation in this study. Informed consent was obtained from all study participants before enrollment in this study.
26 adult asthma patients were enrolled. Sample collection involved assessment of patients with a clinical history of asthma, airflow limitation (baseline FEV1≤85% predicted) and either airway hyperresponsiveness (PC20 methacholine<8 mg/ml) or bronchodilator responsiveness (>12% improvement in FEV1% predicted after […] metered-dose inhaler albuterol).

[2] = test system: peripheral blood monocytes from asthmatics; assay: Effects of inhibitors on MKP-1 and IL-8 mRNA induction by H. parainfluenzae and on cellular response to corticosteroids (real time PCR); type: cell-based, human; details: for cellular sensitivity to corticosteroids in vitro (MKP-1 mRNA induction by DEX) in the presence of H. parainfluenzae: inhibitor 1 h, bacteria 15 min, then 3 h DEX, FIG. 4C; for MKP-1 mRNA induction by H. parainfluenzae / IL-8 mRNA induction by H. parainfluenzae: monocytes preincubated with inhibitor 1 h (TAK1 inhibitor 2 μM, others 10 μM); for MKP-1 mRNA induction by H. parainfluenzae: bacteria to cell ratio 1:1, FIG. 4A; for IL-8 mRNA induction by H. parainfluenzae: bacteria to cell ratio 1:1, FIG. 4B
Experimental: Cell culture and treatment. Peripheral blood mononuclear cells (PBMC) were isolated from asthma patients. Monocytes were prepared by negative selection using Human Monocyte Isolation Kit II (Milteniyi Biotech Inc., Auburn, CA). BAL macrophages were enriched by 3 h plastic adhesion. Cell purity was ≥95%. In all experiments, monocytes and BAL macrophages were cultured in the X-VIVO™ 15 serum free medium overnight; medium was replaced with X-VIVO™ 15 medium without antibiotics prior to addition of bacteria. Bacteria were added to 10^6 cells/ml in culture at 0.1 or 1 bacteria per cell.
In vitro response to corticosteroids in the presence of bacteria. 0.5×10^6 monocytes or 2.5×10^5 BAL macrophages per condition were cultured overnight in X-VIVO™ 15 media, treated with 0.1 to 1 bacteria per cell or 10 ng/ml of E. coli strain 0111: B4 LPS (Sigma-Aldrich Corp) for 15 min and stimulated with 10^−6 M dexamethasone (DEX) for an additional 3 h still in the presence of bacteria. Following incubation the cells were preserved in RLT buffer (Qiagen, Inc., Valencia, CA). RNA was extracted using RNAEASYR Mini kit (Qiagen), and analyzed by real-time PCR as previously described (Goleva E et al., J Allergy Clin Immunol 2012; 129: 687-93e1) for the expression of corticosteroid-regulated targets mitogen activated kinase phosphatase 1 (MKP-1), and IL-8. 18s RNA was measured as a house keeping gene. All primers were purchased from Applied Biosystems (Life Technologies Corporation, Carlsbad, CA). Standard curves for gene targets were generated using the fluorescent data from two-fold serial dilutions of total RNA of the highest expression sample. Quantities of each target gene in test samples were normalized to the corresponding levels of the housekeeping gene (18s RNA) in each sample. Fold induction and fold suppression by DEX of selected gene targets was calculated for cells cultured in media, with LPS or with bacteria.
The effects of inhibitors on cellular response to corticosteroids. To examine whether MAPK inhibition or transforming growth factor beta associated kinase 1 (TAK1) inhibition reverses the corticosteroid resistant response to pathogenic microbes, monocytes were pretreated with either TAK1 inhibitor (5Z)-7-Oxozeaenol, Curvularia sp. (Calbiochem, EMD Serono, Inc., Rockland, MA) (2 μM), the p38 inhibitor, SB203580 (10 μM) (Calbiochem) or the cocktail of the three MAPK inhibitors (SB203580, p38 inhibitor; PD98059, MEK1/ERK inhibitor (Invitrogen, Life Technologies, Grand Island, NY) and SP600125, JNK inhibitor (InVivogen, San Diego, CA), all at 10 μM) for 1 h prior to stimulation with bacteria and cellular response to corticosteroids was evaluated by real time PCR as described above. To assess the efficacy of inhibitors on suppression of cell activation induced by bacteria cells were pretreated with inhibitors for 1 h or cultured in media, stimulated with H. parainfluenzae for 15 min. Protein lysates were prepared as described above. ERK and hsp27 phosphorylation as downstream targets for TAK1 and p38 MAPK activation, respectively, were assessed by Western blot as described in (Zhang Y et al., J Immunol 2012, in press; Li L B et al., J Allergy Clin Immunol 2004; 114: 1059-69; Zhang Y et al., J Biol Chem 2009; 284: 24542-52).
Toll-like receptor (TLR) engagement by bacteria is the major pathway of cell activation by bacteria (Akira S, Nat Rev Immunol 2004; 4: 499-511). TAK1 phosphorylation represents a key downstream TLR signaling branching point that controls both MAPK and NFKB pathway activation in the cells (Liew F Y et al., Nat Rev Immunol 2005; 5: 446-58). To address the role of TLR signaling pathways in MAPK and TAK1 activation by H. parainfluenzae and the alteration of cellular response to corticosteroids, asthmatic peripheral blood monocytes were preincubated with/without TAK1 and MAPK inhibitors for 1 hour, stimulated with bacteria followed by treatment with DEX or medium and analyzed by real time PCR.

hsp27 phosphorylation = assay: Western blot of hsp27 phosphorylation as downstream read out for p38 MAPK activation by H. parainfluenzae; type: cell-based, human; details: 10 μM inhibitor, 15 min H. para, bacteria to cell ratio 1:1, monocytes from asthma patients, FIG. 4D
Experimental: (§2) P38 mitogen activated protein kinase (MAPK) stimulation by bacteria. P38 MAPK activation in response to various concentrations of pathogenic and commensal bacteria as well as time course of p38 activation in response to these bacteria was determined. Cells were stimulated with 0.1 and 1 bacteria per cell, at kinetic time frames from 15 min to 3 h (monocytes), or after 3h of stimulation with bacteria (BAL macrophages). […] Protein concentration was determined by Bradford assay and cell lysates were analyzed for p-p38 MAPK expression by Western blot as described by us earlier (Zhang Y et al., J Immunol 2012, in press).
(§3) The effects of inhibitors on cellular response to corticosteroids. […] (Calbiochem, EMD Serono, Inc., Rockland, MA) (2 μM), the p38 inhibitor, SB203580 (10 μM) (Calbiochem) or the cocktail of the three MAPK inhibitors (SB203580, p38 inhibitor; PD98059, MEK1/ERK inhibitor (Invitrogen, Life Technologies, Grand Island, NY) and SP600125, JNK inhibitor (InVivogen, San Diego, CA), all at 10 μM) for 1 h prior to stimulation with bacteria and cellular response to corticosteroids was evaluated by real time PCR as described above. […]

[3] = Clinical response to oral prednisone burst (FEV1 percent predicted); type: in vivo, human; details: for FEV1% change after Prednisone burst, (Mean ± SD): prednisone 20 mg by mouth twice daily for 7 days; for FEV1% change after Prednisone burst, (Mean ± SE): one week 40 mg/d oral prednisone
Source text: as §1
Corticosteroid response of asthmatics was classified based on their prebronchodilator morning FEV1% predicted response to one week course of 40 mg/d oral prednisone.

ERK phosphorylation = assay: Western blot of ERK phosphorylation as downstream read out for TAK1 activation by H. parainfluenzae; type: cell-based, human; details: 2 μM inhibitor, 15 min H. para, bacteria to cell ratio 1:1, monocytes from asthma patients, FIG. 4D
Experimental: as §2, §3

CC(C)(C)NCC(O)c1ccc(O)c(CO)c1 (centres unmarked) [Albuterol, albuterol]
FEV1% reversal with Albuterol, (Mean ± SD) ([1]; CR asthma, n = 29, 180 μg albuterol inhaled): 15.0 ± 9.4%
FEV1% reversal with Albuterol, (Mean ± SD) ([1]; CS asthma, n = 10, 180 μg albuterol inhaled): 37.2 ± 24.7%
FEV1% reversal with Albuterol, (Mean ± SD) ([1]; Normal controls, n = 12): 5.1 ± 2.4%
FEV1% reversal with Albuterol, (Mean ± SE) ([1]; SR asthma, n = 12): 13.3 ± 2.1 %
FEV1% reversal with Albuterol, (Mean ± SE) ([1]; SS asthma, n = 13): 41.1 ± 8.7%

C[S+]([O-])c1ccc(-c2nc(-c3ccncc3)c(-c3ccc(F)cc3)[nH]2)cc1 (centres unmarked) [P38 MAPK inhibitor, SB203580]
cellular sensitivity to corticosteroids in vitro (MKP-1 mRNA induction by DEX) in the presence of H. parainfluenzae [2]: failed to restore
MKP-1 mRNA induction by H. parainfluenzae [2]: reduced
IL-8 mRNA induction by H. parainfluenzae [2]: reduced
hsp27 phosphorylation by H. parainfluenzae (hsp27 phosphorylation): fully inhibited

C[C@]12C=CC(=O)C=C1CC[C@@H]1[C@@H]2C(=O)C[C@@]2(C)[C@H]1CC[C@]2(O)C(=O)CO [Prednisone, prednisone]
FEV1% change after Prednisone burst, (Mean ± SD) ([3]; CR asthma, n = 29): −0.2±5.9%
FEV1% change after Prednisone burst, (Mean ± SD) ([3]; CS asthma, n = 10): 31.0±23.5%
FEV1% change after Prednisone burst, (Mean ± SE) ([3]; SR asthma, n = 12): 0.8 ± 1.9 %
FEV1% change after Prednisone burst, (Mean ± SE) ([3]; SS asthma, n = 13): 42.2 ± 10.0%

COc1cc(O)c2c(c1)/C=C/C[C@H](O)[C@H](O)C(=O)/C=C\C[C@H](C)OC2=O [TAK1 inhibitor, (5Z)-7-Oxozeaenol]
cellular sensitivity to corticosteroids in vitro (MKP-1 mRNA induction by DEX) in the presence of H. parainfluenzae [2]: restoration of cellular sensitivity to corticosteroids; also recorded: steroid sensitive
MKP-1 mRNA induction by H. parainfluenzae [2]: significant inhibition
IL-8 mRNA induction by H. parainfluenzae [2]: significant inhibition
ERK phosphorylation by H. parainfluenzae (ERK phosphorylation): fully inhibited
